biological target: T1, ALK fusion protein (Homo sapiens, UniProt Q9UM73); assay: Western blot of ALK fusion protein levels in NCI-H3122 cells; type: cell-based; details: NCI-H3122, NCI-H3122 cells, 500 nM, Western blot; read-out: ALK fusion protein degradation, NCI-H3122 (500 nM)
T1 construct: endogenous in cells; host or cells: NCI-H3122; the other entry of the earlier key: EML4 (Q9HC35, Echinoderm microtubule-associated protein-like 4)
Experimental: SU-DHL-1, NCI-H3122 and NCI-H2228 cells were cultured in RPMI-1640 medium supplemented with 10% fetal bovine serum, 50 μg/mL penicillin and streptomycin. Cells were cultured in a 37° C. incubator with 5% CO2.
Cells were washed with cold PBS once and lysed in 1× Laemmli loading buffer directly. Lysates were heated at 99° C. for […], and resolved on 4-15% precast SDS-PAGE (BIO-RAD) and transferred onto PVDF membrane. Membrane was blocked in 5% milk in Tris-buffered saline and Tween 20 (TBST) for 1 h at room temperature, followed by incubation with a primary antibody overnight at 4° C., and a horseradish peroxidase (HRP)-conjugated secondary antibody for 1 h at room temperature. The membrane was imaged by a ChemiDoc MP imaging system (BIO-RAD). Antibodies against GAPDH (abeam), Phospho-ALK (Tyr1507), ALK (Cell Signaling Technology), Tubulin (Santa Cruz) were purchased commercially. […]

T1 sequence (Q9UM73 with tags, fused parts or gaps): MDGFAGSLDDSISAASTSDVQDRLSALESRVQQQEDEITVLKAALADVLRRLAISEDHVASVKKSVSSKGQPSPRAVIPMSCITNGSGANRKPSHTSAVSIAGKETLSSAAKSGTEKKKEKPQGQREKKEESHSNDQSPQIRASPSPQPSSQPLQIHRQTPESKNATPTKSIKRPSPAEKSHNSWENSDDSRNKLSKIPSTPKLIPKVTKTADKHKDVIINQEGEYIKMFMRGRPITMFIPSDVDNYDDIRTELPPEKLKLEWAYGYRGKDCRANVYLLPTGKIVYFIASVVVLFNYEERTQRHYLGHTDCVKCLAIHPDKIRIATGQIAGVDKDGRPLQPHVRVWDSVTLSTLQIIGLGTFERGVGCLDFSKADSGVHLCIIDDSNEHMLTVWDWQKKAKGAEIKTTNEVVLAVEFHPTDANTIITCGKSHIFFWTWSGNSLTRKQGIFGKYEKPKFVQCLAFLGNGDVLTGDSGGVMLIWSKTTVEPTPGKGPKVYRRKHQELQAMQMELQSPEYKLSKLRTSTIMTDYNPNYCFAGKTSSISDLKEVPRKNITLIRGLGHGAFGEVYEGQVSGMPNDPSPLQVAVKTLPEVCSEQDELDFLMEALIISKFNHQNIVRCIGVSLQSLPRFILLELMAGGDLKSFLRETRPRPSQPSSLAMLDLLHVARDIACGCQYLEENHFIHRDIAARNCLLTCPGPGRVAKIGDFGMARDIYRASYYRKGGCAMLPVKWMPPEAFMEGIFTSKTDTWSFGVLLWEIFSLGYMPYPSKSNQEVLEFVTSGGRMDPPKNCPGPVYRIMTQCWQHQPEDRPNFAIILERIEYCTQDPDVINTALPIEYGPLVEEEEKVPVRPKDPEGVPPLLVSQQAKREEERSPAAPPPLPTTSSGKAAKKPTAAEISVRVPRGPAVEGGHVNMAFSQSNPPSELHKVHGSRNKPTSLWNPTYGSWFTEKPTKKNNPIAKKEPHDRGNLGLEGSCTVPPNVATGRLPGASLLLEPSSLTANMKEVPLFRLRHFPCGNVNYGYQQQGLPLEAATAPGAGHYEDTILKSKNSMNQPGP

Dmax at 0.5 µM | Compound
20 to 80% | Cc1cc(Nc2ncc(Cl)c(Nc3ccccc3S(=O)(=O)C(C)C)n2)c(OC(C)C)cc1C1CCN(C(=O)COCC(=O)N[C@H](C(=O)N2C[C@H](O)C[C@H]2C(=O)NCc2ccc(-c3scnc3C)cc2)C(C)(C)C)CC1 [CZ47-13, (2S,4R)-1-((S)-2-(2-(2-(4-(4-((5-Chloro-4-((2-(isopropylsulfonyl)phenyl)amino)pyrimidin-2-yl)amino)-5-isopropoxy-2-methylphenyl)piperidin-1-yl)-2-oxoethoxy)acetamido)-3,3-dimethylbutanoyl)-4-hydroxy-N-(4-(4-methylthiazol-5-yl)benzyl)pyrrolidine-2-carboxamide]
> 80% | Cc1cc(Nc2ncc(Cl)c(Nc3ccccc3S(=O)(=O)C(C)C)n2)c(OC(C)C)cc1C1CCN(C(=O)CCCCCC(=O)N[C@H](C(=O)N2C[C@H](O)C[C@H]2C(=O)NCc2ccc(-c3scnc3C)cc2)C(C)(C)C)CC1 [CZ47-25, (2S,4R)-1-((S)-2-(7-(4-(4-((5-Chloro-4-((2-(isopropylsulfonyl)phenyl)amino)pyrimidin-2-yl)amino)-5-isopropoxy-2-methylphenyl)piperidin-1-yl)-7-oxoheptanamido)-3,3-dimethylbutanoyl)-4-hydroxy-N-(4-(4-methylthiazol-5-yl)benzyl)pyrrolidine-2-carboxamide]
< 20% | Cc1cc(Nc2ncc(Cl)c(Nc3ccccc3S(=O)(=O)C(C)C)n2)c(OC(C)C)cc1C1CCN(C(=O)CCCCCNc2cccc3c2C(=O)N(C2CCC(=O)NC2=O)C3=O)CC1 (stereo not drawn) [CZ47-05, 4-((6-(4-(4-((5-Chloro-4-((2-(isopropylsulfonyl)phenyl)amino)pyrimidin-2-yl)amino)-5-isopropoxy-2-methylphenyl)piperidin-1-yl)-6-oxohexyl)amino)-2-(2,6-dioxopiperidin-3-yl)isoindoline-1,3-dione]
20 to 80% | Cc1cc(Nc2ncc(Cl)c(Nc3ccccc3S(=O)(=O)C(C)C)n2)c(OC(C)C)cc1C1CCN(C(=O)CCCCCCCNc2cccc3c2C(=O)N(C2CCC(=O)NC2=O)C3=O)CC1 (stereo not drawn) [CZ47-07, 4-((8-(4-(4-((5-Chloro-4-((2-(isopropylsulfonyl)phenyl)amino)pyrimidin-2-yl)amino)-5-isopropoxy-2-methylphenyl)piperidin-1-yl)-8-oxooctyl)amino)-2-(2,6-dioxopiperidin-3-yl)isoindoline-1,3-dione]
< 20% | Cc1cc(Nc2ncc(Cl)c(Nc3ccccc3S(=O)(=O)C(C)C)n2)c(OC(C)C)cc1C1CCN(C(=O)CNc2cccc3c2C(=O)N(C2CCC(=O)NC2=O)C3=O)CC1 (stereo not drawn) [CZ47-01, 4-((2-(4-(4-((5-Chloro-4-((2-(isopropylsulfonyl)phenyl)amino)pyrimidin-2-yl)amino)-5-isopropoxy-2-methylphenyl)piperidin-1-yl)-2-oxoethyl)amino)-2-(2,6-dioxopiperidin-3-yl)isoindoline-1,3-dione]
20 to 80% | Cc1cc(Nc2ncc(Cl)c(Nc3ccccc3S(=O)(=O)C(C)C)n2)c(OC(C)C)cc1C1CCN(C(=O)CCCNc2cccc3c2C(=O)N(C2CCC(=O)NC2=O)C3=O)CC1 (stereo not drawn) [CZ47-03, 4-((4-(4-(4-((5-Chloro-4-((2-(isopropylsulfonyl)phenyl)amino)pyrimidin-2-yl)amino)-5-isopropoxy-2-methylphenyl)piperidin-1-yl)-4-oxobutyl)amino)-2-(2,6-dioxopiperidin-3-yl)isoindoline-1,3-dione]
< 20% | Cc1cc(Nc2ncc(Cl)c(Nc3ccccc3S(=O)(=O)C(C)C)n2)c(OC(C)C)cc1C1CCN(C(=O)CCCCCCCCC(=O)N[C@H](C(=O)N2C[C@H](O)C[C@H]2C(=O)NCc2ccc(-c3scnc3C)cc2)C(C)(C)C)CC1 [CZ47-28, (2S,4R)-1-((S)-2-(10-(4-(4-((5-Chloro-4-((2-(isopropylsulfonyl)phenyl)amino)pyrimidin-2-yl)amino)-5-isopropoxy-2-methylphenyl)piperidin-1-yl)-10-oxodecanamido)-3,3-dimethylbutanoyl)-4-hydroxy-N-(4-(4-methylthiazol-5-yl)benzyl)pyrrolidine-2-carboxamide]
20 to 80% | Cc1cc(Nc2ncc(Cl)c(Nc3ccccc3S(=O)(=O)C(C)C)n2)c(OC(C)C)cc1C1CCN(C(=O)CCOCCC(=O)N[C@H](C(=O)N2C[C@H](O)C[C@H]2C(=O)NCc2ccc(-c3scnc3C)cc2)C(C)(C)C)CC1 [CZ47-14, (2S,4R)-1-((S)-2-(3-(3-(4-(4-((5-Chloro-4-((2-(isopropylsulfonyl)phenyl)amino)pyrimidin-2-yl)amino)-5-isopropoxy-2-methylphenyl)piperidin-1-yl)-3-oxopropoxy)propanamido)-3,3-dimethylbutanoyl)-4-hydroxy-N-(4-(4-methylthiazol-5-yl)benzyl)pyrrolidine-2-carboxamide]
> 80% | Cc1cc(Nc2ncc(Cl)c(Nc3ccccc3S(=O)(=O)C(C)C)n2)c(OC(C)C)cc1C1CCN(C(=O)CCOCCNc2cccc3c2C(=O)N(C2CCC(=O)NC2=O)C3=O)CC1 (stereo not drawn) [CZ47-08, 4-((2-(3-(4-(4-((5-Chloro-4-((2-(isopropylsulfonyl)phenyl)amino)pyrimidin-2-yl)amino)-5-isopropoxy-2-methylphenyl)piperidin-1-yl)-3-oxopropoxy)ethyl)amino)-2-(2,6-dioxopiperidin-3-yl)isoindoline-1,3-dione]
20 to 80% | Cc1cc(Nc2ncc(Cl)c(Nc3ccccc3S(=O)(=O)C(C)C)n2)c(OC(C)C)cc1C1CCN(C(=O)CCOCCOCCOCCOCCOCCNc2cccc3c2C(=O)N(C2CCC(=O)NC2=O)C3=O)CC1 (stereo not drawn) [CZ47-12, 4-((18-(4-(4-((5-Chloro-4-((2-(isopropylsulfonyl)phenyl)amino)pyrimidin-2-yl)amino)-5-isopropoxy-2-methylphenyl)piperidin-1-yl)-18-oxo-3,6,9,12,15-pentaoxaoctadecyl)amino)-2-(2,6-dioxopiperidin-3-yl)isoindoline-1,3-dione]
> 80% | Cc1cc(Nc2ncc(Cl)c(Nc3ccccc3S(=O)(=O)C(C)C)n2)c(OC(C)C)cc1C1CCN(C(=O)CCCCCCC(=O)N[C@H](C(=O)N2C[C@H](O)C[C@H]2C(=O)NCc2ccc(-c3scnc3C)cc2)C(C)(C)C)CC1 [CZ47-26, (2S,4R)-1-((S)-2-(8-(4-(4-((5-Chloro-4-((2-(isopropylsulfonyl)phenyl)amino)pyrimidin-2-yl)amino)-5-isopropoxy-2-methylphenyl)piperidin-1-yl)-8-oxooctanamido)-3,3-dimethylbutanoyl)-4-hydroxy-N-(4-(4-methylthiazol-5-yl)benzyl)pyrrolidine-2-carboxamide]
20 to 80% | Cc1cc(Nc2ncc(Cl)c(Nc3ccccc3S(=O)(=O)C(C)C)n2)c(OC(C)C)cc1C1CCN(C(=O)CCC(=O)N[C@H](C(=O)N2C[C@H](O)C[C@H]2C(=O)NCc2ccc(-c3scnc3C)cc2)C(C)(C)C)CC1 [CZ47-22, (2S,4R)-1-((S)-2-(4-(4-(4-((5-Chloro-4-((2-(isopropylsulfonyl)phenyl)amino)pyrimidin-2-yl)amino)-5-isopropoxy-2-methylphenyl)piperidin-1-yl)-4-oxobutanamido)-3,3-dimethylbutanoyl)-4-hydroxy-N-(4-(4-methylthiazol-5-yl)benzyl)pyrrolidine-2-carboxamide]

Reference: patent US20210283261A1, “Compositions and Methods for Treating ALK-Mediated Cancer” (ICAHN SCHOOL OF MEDICINE AT MOUNT SINAI, priority 2017, published 2021)
